Test results: PubChem BioAssay AID463229 (Broad Institute, 2010)
Several values for one entry are separate records, joined by “and”; a condition that tells them apart may be missing. Equal values may be shown once.

These molecules were tested on INS-1E rat beta cells, no cytokines, CellTiter-Glo ATP, 48 h (assay: ATP level change in INS-1E without cytokines, dose response, counter-screen for beta-cell apoptosis protection project, INS-1E rat cells, ATP luminescence, cherry pick (AID 463229)).

Row | Structure (SMILES) | AC50
1 | COc1ccc(S(=O)(=O)Nc2cc(SCC(=O)O)c(O)c3ccccc23)cc1 | 8.19 µM
2 | O=C(N/N=C/c1ccc([N+](=O)[O-])o1)c1ccc(O)cc1 | 7.45 µM
3 | O=C(Nc1ccccc1O)C(c1ccccc1)c1ccccc1 | 6.92 µM
4 | O=C(Nc1nc(-c2ccccn2)cs1)c1ccc([N+](=O)[O-])o1 | 6.03 µM
5 | CCOC(=O)N1CCN(S(=O)(=O)c2ccc(C(=O)NNc3nc4cc(C)cc(C)c4s3)cc2)CC1 | 6.01 µM
6 | CCCCC(=O)NC(c1ccco1)c1cc(Cl)c2cccnc2c1O (stereo unspecified) | 12.4 µM
7 | Cc1ccc([N+](=O)[O-])cc1N(CC(=O)Nc1ccc(S(=O)(=O)Nc2cccc(C(F)(F)F)c2)cc1)S(C)(=O)=O | 4.1 µM
8 | CC(C)(C)c1cc(C(=O)N/N=C/c2ccccc2O)n(-c2ccccc2)n1 | 10.1 µM
9 | Clc1ccccc1Nc1nnc(-c2ccncc2)s1 | 4.64 µM
10 | CC(C)CCCCCCNC(=S)Nc1ccc(S(=O)(=O)N2CCOCC2)cc1 | 12.6 µM
11 | c1ccc(-c2nnc(-c3ccccn3)nc2NC2CCCCC2)cc1 | 3.52 µM
12 | COc1cc(SC#N)ccc1N=Cc1c(C)[nH]n(-c2ccc(C)c(C)c2)c1=O | 5.85 µM
13 | CCc1ccc(Nc2n[n+](-c3ccccc3)c(-c3c(Cl)cccc3Cl)s2)cc1 | 4.08 µM
14 | Cc1ccc(S(=O)(=O)Nc2cc(Cl)c(O)c3ncccc23)cc1 | 4.38 µM
15 | CN(C)CC(C(=O)c1ccccc1)c1ccccc1 (stereo unspecified) | 11.8 µM
16 | COc1ccc(C(=O)N/N=C/c2ccccc2OC(=O)c2ccccc2)cc1 | 7.93 µM
17 | Cc1cccc(N2C(=S)N=C(Nc3c(C)cccc3C)C23CCOC(C)(C)C3)c1 (stereo unspecified) | 3.79 µM
18 | Cc1cc(C(=O)N/N=C/c2cc(N=Nc3ccccc3)ccc2O)n[nH]1 | 3.23 µM
19 | CCCCCc1cc(=O)oc2c(C(CCN3CCCC(C)C3)c3cc(OC)c(OC)c(OC)c3)c(OC)cc(OC)c12 (stereo unspecified) | 14 µM
20 | Cc1ccc(F)c([C@H]2C3C=CCC(c4ccccc4)C3C(=O)N2Cc2ccccc2)c1 (stereo partly specified) | 14.4 µM
21 | COc1ccc(C2=Nn3c([n+](C)c4ccccc43)SC2)cc1 | 1.54 µM
22 | O=C(Nc1nc2ccccc2s1)c1cc(-c2ccccc2)nn1-c1ccccc1 | 3.74 µM

Row | Structure (SMILES) | AC50
23 | O=C([O-])c1cc(-c2ccccc2)cc(-c2ccccc2)[n+]1Cc1ccccc1 | 1.98 µM
24 | Cc1ccc(C2(c3ccc(C)cc3)CC2C(=O)Nc2ccc([N+](=O)[O-])cc2O)cc1 (stereo unspecified) | 3.79 µM
25 | CC(=O)/C=C/n1c(=S)oc2ccccc21 | 8.87 µM
26 | NS(=O)(=O)c1ccc(N/N=C2/CCCCC2C2CCCCC2)c([N+](=O)[O-])c1 (stereo unspecified) | 8.1 µM
27 | O=C(Nc1ccc(OC(F)(F)F)cc1)Nc1cccc([N+](=O)[O-])c1 | 3.8 µM
28 | CCn1cc(C(=O)O)c(=O)c2cc(F)c(N/N=C/c3ccccc3[N+](=O)[O-])cc21 | 7.62 µM
29 | COc1ccc(OC)c(NC(=O)CN(Cc2ccc(F)cc2)C2CCCCC2)c1 | 4.49 µM
30 | O=C(Nc1cccc(NC(=O)c2ccccc2Cl)c1)c1ccc([N+](=O)[O-])o1 | 7.58 µM
31 | N#CC(C#N)=C1C=CC=CN1/C(=C\c1ccco1)C(=O)c1ccccc1 | 13 µM
32 | COC(=O)[C@@H](Cc1ccccc1)N(Cc1ccccc1)S(=O)(=O)N(Cc1ccccc1)[C@H](Cc1ccccc1)C(=O)OC | 4.27 µM
33 | O=C(N/N=C/c1ccc([N+](=O)[O-])o1)c1cc2ccccc2o1 | 6.22 µM
34 | COc1ccc(/C=N/Nc2cc(C)nc(-n3nc(C)cc3C)n2)cc1 | 16.1 µM
35 | CC(C)(C)c1cc([N+](=O)[O-])cc(C(C)(C)C)c1O | 2.8 µM
36 | CCN1CCN(C2=C(NS(=O)(=O)c3ccccc3)C(=O)c3ccccc3C2=O)CC1 | 20.3 µM
37 | O=C(c1cccnc1)N(c1cc2sc(=O)oc2c2ccccc12)S(=O)(=O)c1ccccc1 | 15.5 µM
38 | Fc1ccccc1/C=N/Nc1nc(-c2ccccn2)nc2ccccc12 | 3.49 µM
39 | O=C(O)CCCC(=O)Nc1ccc(C(=O)NCc2cccnc2)cc1 | 4.54 µM
40 | CCn1c(C)nc2cc(-c3nnc(-c4c(-c5ccccc5)noc4C)o3)ccc21 | 5.18 µM
41 | Cc1nc(C(=O)NNC(=O)c2c(-c3c(Cl)cccc3Cl)noc2C)cs1 | 19.9 µM
42 | CCOc1ccc(-n2c(-c3ccc(Br)cc3)c[n+]3c2CCCCC3)cc1 | 1 µM
43 | CCCCCCCCCCOC(=O)Cn1c(COc2ccccc2OC)[n+](C)c2ccccc21 | 1.09 µM
44 | Cc1nc2ccccc2n1-c1nc(-c2ccco2)cc(C(F)(F)F)n1 | 1.86 µM

Row | Structure (SMILES) | AC50
45 | C=CCC1(CC=C)CCCN1C(=O)c1cc(COc2ccc(C)nc2)on1 | 2.54 µM
46 | C/C(=N\NC(=O)c1ccccc1OCc1ccc(F)cc1)c1ccccn1 | 8.35 µM
47 | Cc1ccc2[nH]c3c(N4CCc5ccccc5C4)ncnc3c2c1 | 2.58 µM
48 | Cc1noc(-c2ccc(C(F)(F)F)cc2)c1NC(=O)Nc1ccc(Cl)cc1 | 7.7 µM
49 | CC1CCC(C(C)C)C(OC(=O)Cn2c(-c3ccccc3)[n+](C)c3ccccc32)C1 (stereo unspecified) | 2.76 µM and 3.37 µM
50 | OCc1ccc(O)c2ncccc12 | 2.38 µM
51 | CCOc1ccc(S(=O)(=O)NCc2ccncc2)cc1 | 1.65 µM
52 | FC(F)(F)c1ccc(CN2C[C@@H]3C(c4ccc(C(F)(F)F)cc4)C4(c5cccnc5)CC3(C4)[C@H]2c2ccccc2)cc1 (stereo partly specified) | 5.15 µM
53 | Cc1cc(/C=N/n2c(COc3ccccc3C)nc3ccccc3c2=O)c(O)c([N+](=O)[O-])c1 | 8.92 µM
54 | COCCn1c(SCC(=O)/C=C2\N(C)c3ccccc3C2(C)C)nnc1-c1ccncc1 | 13.1 µM
55 | COC(=O)C1CCN(C(=O)c2cc(-c3ccc(Cl)s3)nc3ccccc23)CC1 | 3.24 µM
56 | CCCCCCSc1cc(-c2nc3ccc(C)cn3c2NCc2ccccc2)ccc1OC | 6.2 µM
57 | CC(C)C(=O)NC(=S)/C=C1/N(C)c2ccccc2C1(C)C | 7.7 µM
58 | O=C(NCc1cccnc1)Nc1ccc([N+](=O)[O-])cc1 | 11.8 µM
59 | COc1cnc(-c2ccccn2)nc1N(C)C | 21.7 µM
60 | Cc1ccc(NC(=O)c2c(C(F)(F)F)nn(C)c2SCc2cccc(C(F)(F)F)c2)cc1C | 11.8 µM
61 | COc1ccc(CCNc2c(C)c(C)nc3ncnn23)cc1 | 3.68 µM
62 | N/C(=N\OC(=O)c1cccc(Cn2cc(C(F)(F)F)ccc2=O)c1)c1ccc(Cl)cc1 | 8.25 µM
63 | O=C(c1cnc(N2CCN(c3ccccn3)CC2)c2ccccc12)N1CCN(c2cccc(Cl)c2)CC1 | 7.59 µM
64 | COc1ccc(-c2cn(-c3ccc(OC)cc3)c3[n+]2-c2ccccc2CC3)cc1 | 0.806 µM
65 | Cc1cc(N2CCC(C)CC2)nc(NCc2ccccc2)n1 | 12.3 µM
66 | Cn1cc(/C=C/c2cc[n+](C)cc2)c2cc(Cl)ccc21 | 4.85 µM

Row | Structure (SMILES) | AC50
67 | Cc1cc(C(=O)NC2CCCc3c2cnn3-c2cccc(C)c2C)n(C)n1 (stereo unspecified) | 0.342 µM
68 | COc1cccc(/C=N/Nc2snc(SC)c2C#N)c1O | 5.12 µM
69 | c1ccc(-c2nc(NCc3ccco3)c3ccccc3n2)nc1 | 8.46 µM
70 | CCCC[n+]1ccn(C2=C([O-])c3ccccc3C(=O)/C2=N\S(=O)(=O)c2ccc(Cl)cc2)c1 | 15.8 µM
71 | CC(C)(C)c1ccc(OCc2ccc(C(=O)N/N=C/c3ccc(O)c(O)c3)cc2)cc1 | 8.35 µM
72 | CCC(O)C1CCN(C(=O)c2cc(COc3ccc4ncccc4c3)on2)CC1 (stereo unspecified) | 5.52 µM
73 | N#Cc1c([N+](=O)[O-])cc([N+](=O)[O-])cc1S(=O)(=O)Cc1ccccc1 | 4.91 µM
74 | CCc1ccc(S(=O)(=O)/N=C2\C=C(Nc3ccc(C(=O)O)cc3)C(=O)c3ccccc32)cc1 | 14.7 µM
75 | Cc1c(C)c2cccnc2c2ncccc12 | 2.49 µM
76 | Cn1c(SCC(=O)N/N=C/c2ccc([N+](=O)[O-])s2)nnc1-c1ccc(Cl)cc1 | 12.1 µM
77 | Cc1ccc(C(C)C)c(OCc2ccc(C(=O)N/N=C/c3cccc(O)c3O)cc2)c1 | 7.27 µM
78 | COc1ccc(-c2c[n+]3c(n2-c2ccccc2)CCCCC3)cc1 | 2.35 µM
79 | COc1ccc(/C=N/Nc2cc(C)nc(-n3nc(C)cc3C)n2)c(OC)c1 | 18.4 µM
80 | Oc1ccc2ccccc2c1N=Nc1ccccn1 | 4.14 µM
81 | CCn1cc(/C=C/c2cc[n+](C)cc2)c2ccccc21 | 4.44 µM
82 | Cc1ccc(-c2[nH]ncc2/C=N/n2c(COc3ccccc3C)nc3ccccc3c2=O)cc1 | 8.38 µM
83 | C/C(=N\NC(=O)COc1ccccc1-c1ccccc1)c1ccc(O)cc1O | 10.5 µM
84 | CN(C)c1ccc(/C=C/c2ccc3ccccc3n2)cc1 | 2.28 µM
85 | CCN(c1ccccc1)S(=O)(=O)c1ccc(NC(=O)c2nc(S(C)(=O)=O)ncc2Cl)cc1 | 8.95 µM
86 | CN(C)c1cc[n+](CC(=O)Nc2ccc(Oc3ccccc3)cc2)cc1 | 2.36 µM
87 | CCCCOc1ccc(-c2cc(C(=O)NNC(=S)NCC)c3ccccc3n2)cc1 | 6.66 µM
88 | C#CCOCCOCCOCCNc1nc(N2CCN(C(=O)CCCCCCCCCCNC(=O)[C@H](CCCCN)n3cc(C)nn3)CC2)nc(N2CCN(C(=O)CCCCCCCCCCNC(=O)[C@H](CCCN=C(N)N)n3cc(C[C@@H](C)CC)nn3)CC2)n1 | 7.85 µM

Row | Structure (SMILES) | AC50
89 | COc1cc(CNC2CCCC2)cc(Cl)c1OCc1ccccc1Cl | 14.6 µM
90 | O=C1c2ccc3c4c(ccc(c24)C(=O)N1c1cccc(O)c1)C(=O)N(c1cccc(O)c1)C3=O | 3.36 µM
91 | Cc1ccc(-c2nc(C(Cl)Cl)c3ccccc3n2)cc1 | 3.51 µM
92 | C#CC(=O)N(c1cccc(OC)c1)C(C(=O)NC1CCCC1)c1cccs1 (stereo unspecified) | 14.7 µM
93 | COc1cccc(/C=N/NC(=O)c2cc(-c3ccccn3)nc3ccccc23)c1O | 7.61 µM
94 | COc1ccc(NCc2nnc(SCC(=O)Nc3nc(-c4ccccc4)cs3)n2-c2ccccc2)cc1 | 7 µM
95 | Cc1ccc(N2C(=O)NC(=O)/C(=C\C=C\c3ccco3)C2=O)cc1C | 5.85 µM
96 | O=S(=O)(c1ccc(Cl)cc1)N1CCN(c2ncnc3sccc23)CC1 | 6.65 µM
97 | O=C(Nc1ccc(S(=O)(=O)N2CCOCC2)cc1)c1ccc([N+](=O)[O-])s1 | 6.8 µM
98 | OC(c1cc(-c2ccc(Cl)cc2)nc2ccccc12)C1CCCCN1 (stereo unspecified) | 15.1 µM
99 | O=C(Nc1ccc(Cl)cc1)/C(=C/c1cccc(O)c1)c1nc2ccccc2s1 | 4.46 µM
100 | N#Cc1ccc(-c2csc(NNC(=O)c3ccc(Br)cc3)n2)cc1 | 15.6 µM
101 | Nc1nc(F)nc2c1ncn2[C@@H]1O[C@H](CO)[C@@H](O)[C@H]1O | 0.699 µM
102 | CCOC(=O)N1CCN(c2ncnc3c2[nH]c2ccc(F)cc23)CC1 | 6.43 µM
103 | Cc1ccc(C(C)C)c(OCc2nn(CC(=O)c3ccc(Cl)cc3)c3[n+]2CCCCC3)c1 | 4.55 µM
104 | N#CC(c1ccc(Cl)cc1)c1ccc2c(C(F)(F)F)cc(C(F)(F)F)nc2n1 (stereo unspecified) | 0.898 µM
105 | CCCCCCc1cc2cc(C(=O)Nc3cccc(OC)c3)c(=O)oc2cc1O | 4.41 µM
106 | Cc1cccc(/C=N\NC(=O)c2ccc(Cl)cc2)c1O | 4.8 µM
